The values below are quoted from earlier work in patent US20260207657A1, “ANTISEPTIC COMPOSITIONS AND METHODS” (Solventum Intellectual Properties Company, priority 2022, published 2026).

For the data set the following is noted: 25° C.

`II` [molecular iodine]: the Solubility in water is on record as 0.03 wt-%.
